The source of these data is ChEMBL document CHEMBL1201862, “PubChem BioAssay data set” (2004).

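In this assay, cells in 96-well plates receive the compound at five concentrations for 48 hours. Endpoints are linearly interpolated between the surrounding concentrations. At the GI50, growth is halved.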 Calls of active or inactive are those of the source. Cut-off read from the data, not from the text of the source: active = GI50 up to about 1.1 µM and inactive = higher. Where only a bound is given, the exact number is not on record here.

Holding throughout (experiment): NCI anticancer screen, dose series, 48 h
Experiment [1] concerns SK-MEL-28.
In experiment [2] the test system is HOP-62.
The subject of experiment [3] is SF-295.
The subject of experiment [4] is DU-145.
Experiment [5] concerns M14.
For experiment [6], the system named is UO-31.
For experiment [7], the system named is HL-60.
Experiment [8] deals with SNB-75.
Experiment [9] deals with CAKI-1.
Experiment [10] relates to SF-539.
Experiment [11] deals with MCF7.
Experiment [12] deals with NCI-H23.
The subject of experiment [13] is PC-3.
The subject of experiment [14] is NCI-H460.
In experiment [15] the test system is ACHN.
In experiment [16] the test system is COLO 205.
The subject of experiment [17] is HCT-116.
The subject of experiment [18] is Hs-578T.
Experiment [19] relates to T47D.
Experiment [20] relates to UACC-62.

On to `COc1cc(OC2OC(COC(=O)c3cc(O)c(O)c(O)c3)C(O)C(O)C2O)ccc1O` (stereo not drawn), for which the GI50 in experiment [1] was > 100 µM (inactive); in experiment [2] it was > 100 µM (inactive); in [3], 78.7 µM (inactive); in experiment [4] it was > 100 µM (inactive); in [5], 90.8 µM (inactive); in experiment [6], 33.2 µM (inactive). Also, the GI50 in [7] is 93.1 µM (inactive); in experiment [8], > 100 µM (inactive); in experiment [9] it was 69.2 µM (inactive); in experiment [10], > 100 µM (inactive); in experiment [11] it was 53.8 µM (inactive); in experiment [12], > 100 µM (inactive). Further, the GI50 in experiment [13] is 26.2 µM (inactive); in experiment [14] it was > 100 µM (inactive); in experiment [15] it was 55.1 µM (inactive); in experiment [16], > 100 µM (inactive); in experiment [17], > 100 µM (inactive); in experiment [18], > 100 µM (inactive).

For the compound `CC(C)(C)c1cc(C(C)(C)C)c(SS(=O)(=O)O)c(O)c1O`, the GI50 is 81.8 µM (inactive) in experiment [1]; 54.6 µM (inactive) in experiment [2]; 31.8 µM (inactive) in experiment [3]; 62.5 µM (inactive) in experiment [4]; 41.3 µM (inactive) in experiment [5]; > 100 µM (inactive) in experiment [6]. The GI50 was 65.6 µM (inactive) in experiment [7]; 34.5 µM (inactive) in [8]; 52.2 µM (inactive) in experiment [9]; 15.1 µM (inactive) in [10]; 33.7 µM (inactive) in experiment [19]; 21.5 µM (inactive) in experiment [20]. The GI50 in [11] was 36.3 µM (inactive); in experiment [12], > 100 µM (inactive); in [13], 50.1 µM (inactive); in experiment [14] it was 10.9 µM (inactive); in experiment [15], 31.6 µM (inactive); in experiment [16], 46.5 µM (inactive). The GI50 in [17] was 33 µM (inactive).

For the compound `Cc1cc(C)c(N[S+]([O-])c2cccc(Cl)c2)c(C)c1` (stereo not drawn), the GI50 in [1], in experiment [2], in [3], in experiment [4], in experiment [5] and in experiment [6] was > 100 µM (inactive) each time. Besides, the GI50 in experiment [7], in experiment [10], in experiment [11], in experiment [12], in [13] and in experiment [14] was > 100 µM (inactive) throughout. For the same compound, the GI50 in [15], in [16] and in experiment [17] was > 100 µM (inactive) each time.

As to `CC(C)=CCC[C@]1(C)C=Cc2c(O)c3c(c(CC=C(C)C)c2O1)O[C@]12C(=C[C@@H]4CC1C(C)(C)O[C@@]2(C/C=C(/C)C(=O)O)C4=O)C3=O`, the GI50 in experiment [1] was 1.28 µM (inactive); in experiment [2], 1.69 µM (inactive); in experiment [3], 2.3 µM (inactive); in experiment [5], 1.57 µM (inactive); in experiment [6], 1.33 µM (inactive); in experiment [7], 0.285 µM (active). For the same compound, the GI50 in experiment [8] is 1.63 µM (inactive); in experiment [9] it was 0.973 µM (active); in experiment [10], 0.206 µM (active); in [20], 1.73 µM (inactive); in experiment [11], 0.376 µM (active); in experiment [12] it was 0.938 µM (active). Besides, the GI50 was 0.802 µM (active) in experiment [13]; 1.24 µM (inactive) in [14]; 0.419 µM (active) in experiment [15]; 0.256 µM (active) in [17]; 0.673 µM (active) in experiment [18].

Turning to `CC1=CC(=O)/C(=C/NC(=S)NCCc2ccccc2)C(=O)O1`, the GI50 in experiment [1], in experiment [2], in [3], in experiment [4], in experiment [5] and in [6] was > 100 µM (inactive) each time. Moreover, the GI50 in [7] is > 100 µM (inactive); in experiment [8] it was 75 µM (inactive); in experiment [9], > 100 µM (inactive); in experiment [10], > 100 µM (inactive); in experiment [19], > 100 µM (inactive); in experiment [11] it was > 100 µM (inactive). In addition, the GI50 in experiment [12] is > 100 µM (inactive); in experiment [13] it was > 100 µM (inactive); in [14], > 100 µM (inactive); in experiment [15], > 100 µM (inactive); in [16], > 100 µM (inactive); in [17] it was 27.2 µM (inactive).

Turning to `C[N+](C)(C)CC(=O)N/N=C(\Cc1nc2ccc([N+](=O)[O-])cc2nc1O)C(=O)Nc1nc2ccc([N+](=O)[O-])cc2s1`, the GI50 in experiment [1] was > 100 µM (inactive); in experiment [2], 57.9 µM (inactive); in experiment [3], 51.8 µM (inactive); in [4] it was 39.4 µM (inactive); in experiment [5], 55.1 µM (inactive); in [6], 25.7 µM (inactive). Further, the GI50 in experiment [7] is > 100 µM (inactive); in experiment [8], 21.5 µM (inactive); in experiment [9] it was 24.6 µM (inactive); in experiment [10], 31.8 µM (inactive); in experiment [19] it was 21.9 µM (inactive); in experiment [20] it was 62.2 µM (inactive). Also, the GI50 is 29.4 µM (inactive) in [11]; 30.7 µM (inactive) in experiment [12]; 27.1 µM (inactive) in [13]; 23.4 µM (inactive) in experiment [14]; 52.2 µM (inactive) in experiment [15]; 48.8 µM (inactive) in experiment [16]. The GI50 in experiment [17] is 51.9 µM (inactive).

`C[C@H](CCC(=O)O)[C@H]1CC[C@H]2[C@@H]3[C@H](O)C[C@@H]4C[C@H](O)CC[C@]4(C)[C@H]3CC[C@]12C` [CHENODIOL]: the GI50 in experiment [1] was 42.6 µM (inactive); in [2], 37.2 µM (inactive); in experiment [4], 43.2 µM (inactive); in experiment [5], 27.7 µM (inactive); in experiment [6], 21.4 µM (inactive); in experiment [7], 34 µM (inactive). The GI50 was 19.6 µM (inactive) in experiment [8]; 37.2 µM (inactive) in experiment [9]; 24.7 µM (inactive) in experiment [10]; 40.2 µM (inactive) in experiment [19]; 36.6 µM (inactive) in experiment [20]; 30.8 µM (inactive) in experiment [11]. Also, the GI50 was 27.9 µM (inactive) in experiment [12]; 36.4 µM (inactive) in [13]; 27.1 µM (inactive) in experiment [14]; 46.8 µM (inactive) in experiment [15]; 22.8 µM (inactive) in [16]; 33.8 µM (inactive) in [17].

Turning to `CCN(CC)CC1CN=C(N)O1` (stereo not drawn), the GI50 in [1], in [2], in experiment [3], in experiment [4], in [5] and in experiment [6] was > 100 µM (inactive) in each case. The GI50 in [8], in [9], in [10], in experiment [19], in experiment [20] and in experiment [11] was > 100 µM (inactive) throughout. Moreover, the GI50 in [12], in [13], in experiment [14], in [15], in [16] and in experiment [17] was > 100 µM (inactive) throughout.

Turning to `Cn1c2c(c3ccccc31)CCN(CCCCN1CCN(c3cccc(Cl)c3)CC1)C2=O`, the GI50 was 6.07 µM (inactive) in experiment [1]; 15.2 µM (inactive) in [2]; 16.1 µM (inactive) in experiment [3]; 3.3 µM (inactive) in experiment [5]; 6.21 µM (inactive) in experiment [6]; 3.67 µM (inactive) in experiment [7]. The GI50 was 0.0975 µM (active) in experiment [8]; 27.2 µM (inactive) in experiment [9]; 12.8 µM (inactive) in experiment [10]; 11.4 µM (inactive) in experiment [20]; 12.6 µM (inactive) in experiment [12]; 13.4 µM (inactive) in experiment [14]. Besides, the GI50 in [15] is 14.9 µM (inactive); in experiment [16], 2.91 µM (inactive); in [17], 6.65 µM (inactive).

For `CC/C(=C/OC)P1(=O)OC(C)(C)CN1C(C)(C)C` (stereo not drawn), the GI50 in [2], in experiment [3], in [4], in [5], in experiment [6] and in experiment [9] was > 100 µM (inactive) throughout. The GI50 in [10], in experiment [19], in experiment [20], in [11], in experiment [12] and in experiment [13] was > 100 µM (inactive) in each case. Further, the GI50 in experiment [14], in [15], in experiment [16] and in experiment [17] was > 100 µM (inactive) throughout.

As for `CCc1cccc(C)c1NC(=O)CC1Sc2ccccc2NC1=O` (stereo not drawn), the GI50 is 84.7 µM (inactive) in experiment [1]; 15.1 µM (inactive) in experiment [2]; 95.7 µM (inactive) in experiment [3]; 39.4 µM (inactive) in experiment [5]; 30.1 µM (inactive) in [6]; 18.1 µM (inactive) in experiment [7]. Moreover, the GI50 in experiment [8] was 10.7 µM (inactive); in experiment [9], 60.5 µM (inactive); in [10] it was 31.9 µM (inactive); in [20], 46.9 µM (inactive); in experiment [12], 38 µM (inactive); in experiment [14] it was 34.4 µM (inactive). For the same compound, the GI50 in [15] is 40.8 µM (inactive); in experiment [16] it was 53.7 µM (inactive); in experiment [17], 34.3 µM (inactive).
